# Test results reported in US7582786B2, “Synthetic catalytic free radical scavengers useful as antioxidants for prevention and therapy of disease” (Eukarion Inc., priority 1996, dated 2009).
# Marks after values point to notes of the source that are not given here.
# Assays:
# [1] = SOD activity, xanthine/xanthine oxidase with cytochrome C as acceptor (Example 2); type: biochemical; details: relative to C7 (C7 = 100)
# Description: Superoxide dismutase (SOD) activity was assayed by following the inhibition of the reduction of an electron acceptor molecule in the presence of the free-radical generating system xanthine/xanthine oxidase (McCord et al. (1973) Superoxide and Superoxide Dismutase in “Oxidases and Related Redox Systems, vol. I, King et al. eds., University Park press, Baltimore, pp. 51-76). The assay mixture consisted of 50 mM sodium phosphate, pH 7.8, 120 μM xanthine, 0.2 units/ml xanthine oxidase, with acceptor molecule and salen manganese compound, as indicated. Assays were conducted at 27±0.2° C. using a water-jacketed cell holder in a Beckman DU7400 spectrophotometer. In most cases, oxidized cytochrome c, at 0.13 mg/ml, was employed as acceptor and its reduction was monitored spectrophotometrically at 550 nm. In some experiments, nitroblue tetrazolium (NBT), at 80 μM, was substituted for cytochrome c as the acceptor. NBT reduction was also monitored at 550 nm. An estimated extinction coefficient for NBT reduction, 20,800 M^−1cm^−1, determined empirically by exhaustive reduction of NBT in the reaction mixture described above, was employed where indicated. […] Conversion of xanthine to urate was calculated using ε290's of […] for urate and 4050 M^−1cm^−1 for xanthine. […] For each compound, at least four different concentrations were tested in duplicate.
# [2] = Peroxidase activity, H2O2-dependent oxidation of ABTS (Example 2); type: biochemical; details: relative to C7 (C7 = 100)
# Description: Peroxidase activity was assayed by monitoring the hydrogen peroxide-dependent oxidation of 2,2′-azino-bis(3-ethylbenzthiazoline-6) sulfonic acid (ABTS) spectrophotometrically. Standard assay mixtures consisted of 50 mM sodium phosphate, pH 8.1, 0.9% sodium chloride, 0.5 mM ABTS, and H2O2 and salen manganese complex as indicated. Where indicated, 50 mM sodium phosphate buffers of pH 6.0 or pH 7.1 were substituted. Assays were conducted at 27±0.2° C. ABTS oxidation was monitored at 740 or 500 nm to eliminate interference by the salen manganese complexes, many of which absorb in the vicinity of the λmax of oxidized ABTS, and to avoid absorbance values that exceeded the linear range of the spectrophotometer. The amount of oxidized ABTS was estimated using an Δε740 of 20,300 M^−1cm^−1 or an Δε500 of 3400 M^−1cm^−1 calculated based upon the published molar extinction coefficient oat 405 nm (36,800).
# (§1) Catalase and peroxidase activities were assayed as described in Example 2. Catalase assays contained 10 μM salen-manganese complex and 10 mM hydrogen peroxide. Peroxidase assays contained 10 μM salen-manganese complex and 0.2 mM hydrogen peroxide. Glucose-glucose oxidase toxicity assays were performed using human dermal fibroblasts as described in Example 2.
# [3] = Catalase activity, conversion of H2O2 to oxygen, polarographic oxygen electrode (Example 2); type: biochemical; details: relative to C7 (C7 = 100)
# Description: Catalase activity was assayed by monitoring the conversion of H2O2 to oxygen using a Clark-type polarographic oxygen electrode. The apparatus consisted of a Mini Clark Style electrode, a 600 μl Oxygen Uptake Chamber, and a Chemical Microsensor system, all obtained from Diamond General Corporation (Ann Arbor, Mich.). The electrode was calibrated by immersion in nitrogen- or air-equilibrated buffers using a Dual Chamber Calibration Cell (Diamond General,. Corp.). Catalase reaction mixtures consisted of 50 mM sodium phosphate, pH 8.1, 0.9% sodium chloride, and salen manganese complex and H2O2 at the indicated concentrations. The temperature of the water-jacketed reaction chamber, as well as the calibration buffers, was maintained at 25±0.1° C. Data were collected at 1 sec intervals and stored-on a MacIntosh II computer using data acquisition hardware and software by Strawberry Tree, Inc. (Sunnyvale, Calif.). Dissolved oxygen concentrations were calculated as described previously (Del Rio et al. (1977) Anal. Biochem. 80: 409) based on a value of 2.5×10^−4 M oxygen for air-saturated buffer at 25° C. Linearity of the dissolved oxygen measurements within the experimental range was continued by determining the amount of oxygen generated from known quantities of H2O2 during exhaustive treatment with bovine liver catalase. Stock solutions of H2O2 were prepared by diluting a commercial 30% H2O2 solution in water and the H2O2 concentrations in these stocks were determined by absorbance at 240 nm, using a molar extinction coefficient of 44 (Stadtman, E R. et al. (1990) Proc. Natl. Acad. Sci. USA 87: 384). […] In the absence of salen manganese complex, H2O2 alone typically produced an early, relatively slow increase in signal. The slope of this increased signal was not proportional to H2O2 concentration (for example in one experiment, 1 and 10 Mm H2O2 yielded apparent rates of 12 and 14 μM oxygen per min, respectively) and may be due to an electrode artifact. […] Where presented, initial rates were calculated by determining the slope of the linear portion of time dependent plots of oxygen generation, usually comprising the first five seconds of the reaction. Unless otherwise indicated, these were corrected by subtracting the rate obtained with H2O2 alone. Where presented, endpoint oxygen generated was calculated from time-dependent plots, such as those shown in FIG. 14, as the difference between the baseline oxygen concentration immediately prior to substrate addition and the maximal oxygen concentration achieved during the course of the reaction. All reactions subjected to these calculations were run for a sufficient time to ensure that oxygen generation had ceased.
# as §1
# [4] = tested on: isolated iron-overloaded rat hearts; assay: Isolated iron-overloaded rat hearts submitted to ischemia and reperfusion (function and electron microscopy)
# Description: Rats received an intramuscular injection of 0.25 ml of an iron-dextran solution (100 g iron hydroxide, 99 g dextran, water up to 1 l) every third day during a 5-week period to achieve a significant iron overload in cardiac tissue. At the end of this treatment, rats were anesthetized with sodium pentobarbital (40 mg/kg) and heparin (1,000 IU/kg) was administered via a femoral vein. Hearts were then removed and rapidly perfused through the aorta according to the technique described by Langendorff [Langendorff, O., Pflügers Arch. 61: 291, 1895] at a constant flow rate of 11 ml/minute. The perfusion fluid was a modified Krebs-Henseleit buffer containing (in mmol/l): NaCl 118, KCl 5.9, NaHCO3 25, MgCl2 1.2, NaH2PO4 0.6, CaCl2 2.4, Glucose […]. pH was maintained at 7.4±0.05 when the perfusion medium was saturated with O2—CO2 (95%-5%) at 37° C. The perfusion apparatus was fully thermostated such that the temperature of the perfusion medium was 37.0±0.5° C. when it reached the aorta. An ultra-thin balloon was inserted in the left ventricle immediately after the initiation of aortic perfusion and was inflated so as to obtain an end-diastolic pressure of 5 mm Hg. A 15 minute stabilization period was initiated immediately following balloon placement. At the end of this period, systolic and diastolic ventricular pressures and heart beat rate (HR) were recorded through a pressure transducer linked to the ventricular balloon. Left Ventricular Developed Pressure (LVDP) was calculated by the difference between systolic and diastolic pressure and the product HR×LVDP was taken as an index of oxygen consumption. Hearts were then subjected to a 15 minute total global normothermic ischemia, followed by 15 minutes of reperfusion with the perfusion medium used initially. During this 15 minute reperfusion, heart rate, and diastolic and systolic pressures were monitored. Early ventricular fibrillations were analyzed 1 min. after the start of the reperfusion.
# Three experimental groups were studied.
# After the 15 minute reperfusion, 3 hearts in each group were prepared for electron microscopy by perfusion with 2.5% glutaraldehyde. Ultra-thin slices (500-600 Å thickness) were examined.
# Mitochondria were classified into Type A (normal), Type B (swollen, unbroken), and Type C (ruptured membranes). Sarcomeres were classified into Type A (normal) and Type B (contacted and/or necrosis). The results are expressed as percentages.
# [5] = 1 minute after reperfusion, DMTU 10 mM, C7 50 μM
# [6] = 15 minutes after reperfusion, DMTU 10 mM, C7 50 μM
# [7] = Before ischemia, DMTU 10 mM, C7 50 μM
# [8] = electron microscopy after 15 minute reperfusion
Catalase endpt. [3],Catalase rate [3],SMILES,Peroxidase [2],further results
,,CC(=O)[O][Mn]1[O]c2c(O)cccc2C=NCCN=Cc2cccc(O)c2[O]1 [Compound C71],,SOD [1]: 75
,,CC(=O)[O][Mn]1[O]c2ccc(O)cc2C=NCCN=Cc2cc(O)ccc2[O]1 [Compound C74],,SOD [1]: 65
,,COc1cc(Br)c2c(c1)C=NCCN=Cc1cc(OC)cc(Br)c1[O][Mn]([O]C(C)=O)[O]2 [Compound C69],167,
,,CC(=O)[O][Mn]1[O]c2ccc(Cl)cc2C=Nc2cccnc2N=Cc2cc(Cl)ccc2[O]1 [Compound C77],0,
,,C1=NCCN=Cc2ccccc2[O][Cu][O]c2ccccc21 [Compound C63],0,SOD [1]: 0
,,[F][Mn]1[O]c2ccccc2C=NCCN=Cc2ccccc2[O]1 [Compound C54],116,SOD [1]: 75
493,272,[Cl][Mn]1[O]c2ccccc2C=Nc2cccnc2N=Cc2ccccc2[O]1 [Compound C44],48,
870,493,COc1cccc2c1[O][Mn]([Cl])[O]c1c(cccc1OC)C=Nc1ccccc1N=C2 [Compound C81],83,
830,465,COc1cccc2c1[O][Mn]([Cl])[O]c1c(cccc1OC)C=Nc1ncccc1N=C2 [Compound C46],20,
52,42,CC(=O)[O][Mn]1[O]c2ccccc2CNCCNCc2ccccc2[O]1 [Compound C83],74,
,,[Cl][Fe]1[O]c2ccccc2C=NCCN=Cc2ccccc2[O]1 [Compound C57],,SOD [1]: 33
,,Oc1ccc2c(c1)[O][Mn]([Cl])[O]c1cc(O)ccc1C=NCCN=C2 [Compound C72],,SOD [1]: 58
159,427,COc1cc(Br)c2c(c1)C=Nc1ccccc1N=Cc1cc(OC)cc(Br)c1[O][Mn]([O]C(C)=O)[O]2 [Compound C76],23,
33,73,CC(=O)[O][Mn]1[O]c2ccccc2C=NCC(C)(C)CN=Cc2ccccc2[O]1 [Compound C52],0,
22,42,CC(=O)[O][Mn]1[O]c2ccc3ccccc3c2C=Nc2ccccc2N=Cc2c(ccc3ccccc23)[O]1 [Compound C79],0,
287,174,COc1cccc2c1[O][Mn]([O]C(C)=O)[O]c1c(cccc1OC)C=NC1CCCCC1N=C2 (centres unmarked) [Compound C50],170,
24,34,COc1cccc2c1[O][Mn]([O]C(C)=O)[O]c1c(cccc1OC)C=NCCCN=C2 [Compound C80],0,
398,343,CC(=O)[O][Mn]1[O]c2ccccc2C=Nc2ccccc2N=Cc2ccccc2[O]1 [Compound C47],101,
,,COc1cc(OC)c2c(c1)[O][Mn]([Cl])[O]c1cc(OC)cc(OC)c1C=NCCN=C2 [Compound C39],,SOD [1]: 27
,,CC(=O)[O][Mn]1[O]c2cc(O)ccc2C=NCCN=Cc2ccc(O)cc2[O]1 [Compound C73],,SOD [1]: 61
51,31,[Cl][Mn]1[O]c2ccccc2CNCCNCc2ccccc2[O]1 [Compound C84],77,
,,C1=NCCN=Cc2ccccc2[O][Ni][O]c2ccccc21 [Compound C59],0,
,,COc1ccc2c(c1)C(C)=NCCN=C(C)c1cc(OC)ccc1[O][Mn]([O]C(C)=O)[O]2 [Compound C87],20,
756,345,CC(=O)[O][Mn]1[O]c2c3cccc2OCCOCCOCCOc2cccc(c2[O]1)C=Nc1ccccc1N=C3 [Compound C82],59,
,,COc1ccc2c(c1)[O][Mn]([O]C(C)=O)[O]c1cc(OC)ccc1C(c1ccccc1)=NCCN=C2c1ccccc1 [Compound C89],0,
,,"CNC(=S)NC [DMTU, dimethylthiourea]",,"DP [4, 5]: 37.2 ± 10.0 mm Hg; HR [4, 5]: 91 ± 10 beats/min; HR × LVDP [4, 5]: 3.5 ± 1.2 ×10.3; SP [4, 5]: 62 ± 9 mm Hg; VF, number of hearts exhibiting episodes of ventricular fibrillation [4, 5]: 3/8; DP [4, 6]: 27.8 ± 9.4 mm Hg; HR [4, 6]: 226 ± 18 beats/min; HR × LVDP [4, 6]: 9.4 ± 2.0 ×10.3; SP [4, 6]: 58 ± 6 mm Hg; DP [4, 7]: 4.7 ± 0.3 mm Hg; HR [4, 7]: 280 ± 10 beats/min; HR × LVDP [4, 7]: 24.1 ± 0.6 ×10.3; SP [4, 7]: 97 ± 4 mm Hg; Mitochondria Type A (normal) [4, 8]: 14.3* %; Mitochondria Type B (swollen, unbroken) [4, 8]: 19.5%; Mitochondria Type C (ruptured membranes) [4, 8]: 66.2%; Sarcomeres Type A (normal) [4, 8]: 13.7+ %; Sarcomeres Type B (contacted and/or necrosis) [4, 8]: 86.3+ %"
,,COc1ccc2c(c1)[O][Mn]([O]C(C)=O)[O]c1cc(OC)ccc1C(C)=NCCN=C2C [Compound C88],0,
,,CC(=O)[O][Mn]1[O]c2c(F)cccc2C=Nc2cccnc2N=Cc2cccc(F)c2[O]1 [Compound C75],0,
